Assay results taken from patent publication US9346832B2, “Gold complexes for use in the treatment of cancer” (University of Kwazulu-Natal, priority 2010, dated 2016).

Biological target: topoisomerase II (Homo sapiens, UniProt P11388)
Assay: Topoisomerase II DNA cleavage/relaxation assay, supercoiled plasmid DNA, EB gel (TopoGEN protocol)
Assay type: biochemical
Method: The compound MA_AuPr clearly targets topoisomerase II if the statistical analysis of the NCI data for a range of drugs shown in FIG. 13 is correct. MA_AuPr was therefore assayed for its action against topoisomerase II in vitro using TopoGEN's standard protocol over a wide range of test agent concentrations (0.005 to 500 μM) in order to obtain direct experimental proof for the apparent cellular target of the compound to ensure that a fundamental understanding of the mechanism of action of this new class of Au(III) compounds exists. These experiments were performed by the company TopoGEN and at the University of Central Florida. The DNA cleavage experiments were performed in vitro using purified topoisomerase I and II enzymes and supercoiled plasmid DNA as the substrate. The controls that were used in the experiment were linear marker DNA as well as reactions without the gold(III) complex and high concentrations of VP16. The compound VP16 (etoposide) is a commercially available DNA intercalator chemotherapeutic agent, widely used in the treatment of lung and testicular cancers as well as lymphomas. The choice of VP16 as a control is based on the fact that it is a poor topoisomerase II inhibitor, but is a powerful topoisomerase II poison which arrests the enzyme's cycle at the ternary drug-enzyme-DNA cleavage complex stage, leading to observation of linear DNA fragments upon SDS denaturation of the enzyme (i.e., work-up). Comparison of the VP16 results with the results of MA_AuPr would therefore give a good indication of whether the gold(III) chelate is an inhibitor or a poison.
Lane 1 of the gel (FIG. 14) is the control experiment with only supercoiled plasmid DNA present. The control contains no topoisomerase II and so the DNA supercoiled structure cannot be relaxed, as the topoisomerase II enzyme would usually do. […] At a higher concentration of the test agent (50 μM), both supercoiled plasmid DNA and linear cleavage products are observed. […] At very high concentrations (>500 μM), MA_AuPr behaves exclusively as a catalytic inhibitor of the enzyme.
The role of gold(III) in the efficacy of the compound was determined by modifying the structure of MA_AuPr by replacing the Au(III) cation with Pd(II) to afford MA_PdPr (the isoelectronic square planar coordination complex of known structure and geometry^31) and carrying out the DNA relaxation assay with topoisomerase II as before. The metal-free ligand (MA_H2PrLig) was tested under identical conditions to confirm that the mechanism of action is related to the intact structure of the metal chelate.

Chain of topoisomerase II (P11388 whole entry): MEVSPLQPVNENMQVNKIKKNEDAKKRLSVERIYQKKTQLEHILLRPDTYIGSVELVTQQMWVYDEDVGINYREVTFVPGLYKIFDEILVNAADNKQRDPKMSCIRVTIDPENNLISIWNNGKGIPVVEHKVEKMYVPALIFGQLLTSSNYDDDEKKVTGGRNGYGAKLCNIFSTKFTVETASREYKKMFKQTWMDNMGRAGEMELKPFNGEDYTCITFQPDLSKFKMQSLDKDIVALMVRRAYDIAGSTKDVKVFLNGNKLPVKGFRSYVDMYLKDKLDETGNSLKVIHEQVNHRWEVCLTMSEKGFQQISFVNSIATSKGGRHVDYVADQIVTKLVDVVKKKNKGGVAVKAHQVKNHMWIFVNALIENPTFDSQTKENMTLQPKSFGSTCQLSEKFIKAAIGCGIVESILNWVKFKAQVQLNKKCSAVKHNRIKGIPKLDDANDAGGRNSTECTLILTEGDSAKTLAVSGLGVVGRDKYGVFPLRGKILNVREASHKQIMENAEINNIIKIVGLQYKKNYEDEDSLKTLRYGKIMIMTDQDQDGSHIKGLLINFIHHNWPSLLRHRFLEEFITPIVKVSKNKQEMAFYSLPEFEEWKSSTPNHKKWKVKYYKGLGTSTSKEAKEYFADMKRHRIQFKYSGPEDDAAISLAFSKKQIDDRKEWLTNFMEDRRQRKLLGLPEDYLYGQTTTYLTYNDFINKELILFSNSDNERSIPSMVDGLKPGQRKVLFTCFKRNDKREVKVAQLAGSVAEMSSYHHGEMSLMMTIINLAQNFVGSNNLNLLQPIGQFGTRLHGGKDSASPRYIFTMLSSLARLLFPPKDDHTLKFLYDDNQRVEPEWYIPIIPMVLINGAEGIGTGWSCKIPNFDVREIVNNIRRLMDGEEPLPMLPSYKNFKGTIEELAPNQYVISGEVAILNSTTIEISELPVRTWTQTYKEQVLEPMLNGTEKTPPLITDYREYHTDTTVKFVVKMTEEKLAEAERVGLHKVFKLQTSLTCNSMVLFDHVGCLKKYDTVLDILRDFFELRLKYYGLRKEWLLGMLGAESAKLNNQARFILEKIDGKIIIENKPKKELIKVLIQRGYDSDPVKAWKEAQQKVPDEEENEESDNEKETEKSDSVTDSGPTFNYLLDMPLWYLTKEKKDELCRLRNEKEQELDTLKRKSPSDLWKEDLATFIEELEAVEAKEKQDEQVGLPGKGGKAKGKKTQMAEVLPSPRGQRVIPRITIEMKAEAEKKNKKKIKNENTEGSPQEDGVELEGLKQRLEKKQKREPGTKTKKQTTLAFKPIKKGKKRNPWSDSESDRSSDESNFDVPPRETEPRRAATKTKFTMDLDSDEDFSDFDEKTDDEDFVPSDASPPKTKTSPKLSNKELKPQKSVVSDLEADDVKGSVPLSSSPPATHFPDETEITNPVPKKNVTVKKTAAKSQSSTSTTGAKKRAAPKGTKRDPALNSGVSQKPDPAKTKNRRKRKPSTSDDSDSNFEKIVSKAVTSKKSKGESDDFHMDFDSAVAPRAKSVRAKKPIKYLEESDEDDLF

C1=NCCCN=Cc2ccc[n]2[Au+][n]2cccc21.[Cl-] [MA_AuPr, 2,2′-{propane-1,3-diylbis[nitrilo(E)methylylidene]}bis(pyrrol-1-ido)gold(III) chloride] was tested, and the “concentration at which compound behaves exclusively as catalytic inhibitor” value was greater than 500 µM, the “action on topoisomerase II” value (compared with VP-16 (etoposide)) was “both a poison and a catalytic topoisomerase II inhibitor” and the “concentration of catalytic inhibition of topoisomerase II” value (supercoiled plasmid DNA not relaxed) was 50 µM. For the same compound, the “concentration at which topoisomerase II poisoning (DNA cleavage induction) is observed” value (supercoiled plasmid DNA, linear cleavage products) was 0.5 µM.
